Assays:
Jurkat T-cells = assay: Transwell transmigration of Jurkat T-cells to HepG2CM fractions, with inhibitors; type: cell-based, human; conditions: Jurkat cells pretreated, 100 μM for 15 minutes
Procedure: The HepG2 cell line (derived from a human hepatocarcinoma-ATCC no:HB-8065, ATCC, Manassas, Va.) was grown to confluency in MEM+10% heat inactivated fetal calf serum+penicillin/streptomycin+L-glutamine. Confluent HepG2 cells were then transferred into serum free medium for 48 hours and the serum free conditioned medium (HepG2CM) was harvested from these cultures. HepG2CM was filtered through a 0.4 μm filter prior to use in transmigration assays or in the Fugetaxin separation system detailed below.
200 ml of HepG2CM were loaded onto a 5-ml HiTrap heparin column (Pharmacia) equilibrated with 10 mM Na phosphate, pH 7. The column was eluted with step increasing concentration of NaCl. […] A cation exchange column, HiTrap Sp Sepharose (Pharmacia), was used as a second step of purification. The active fraction from the Heparin column was dialysized against 50 mM MES, pH6.4 and loaded onto a 1-ml HiTrap Sp column equilibrated with 50 mM MES, pH6.4. The column was then eluted with a linear gradient of NaCl concentration. • 3. […] The active fraction eluted from the HiTrap Sp column in the previous step was then dialysized with 20 mM Tris, pH8.0 and further fractionated using a MonoQ HR5/5 column (Pharmacia). The column was then eluted with a linear gradient of NaCl concentration.
We examined the biology of the fugetactic activity of Fraction 18 with in vitro and in vivo transmigration assay systems. […]

CD8+CD45RA+ T-cells = assay: Transwell transmigration assay with recombinant HIV-1IIIB gp120 and inhibitors; type: cell-based, human; conditions: cells pretreated with inhibitor
Procedure: Purified T-cell and thymocyte subpopulations (5×10^4 cells) were added to the upper chamber of each well in a total volume of 150 μl of IMDM alone.
(§1) Cells were pretreated with anti-CXCR-4 (Pharmingen, San Diego, Calif.) at 20 μg/ml for 30 minutes at room temperature, pertussis toxin (PTX) (100 ng/ml for 1 hour at 37° C.), genistein (1 μg/ml for 20 minutes at 37° C.), herbimycin ([…] for 20 minutes 37° C.), wortmannin (1 μM for 20 minutes at 37° C.), 8-Br-cAMP (100 μM for 15 minutes at room temperature) or 8-Br-cGMP (100 μM for 15 minutes at room temperature) (Sigma Chemical Company, St Louis, Mo.) prior to their addition to the upper chambers of the transwells in selected experiments. Transwells prepared in this way were incubated for 3 hours at 37° C./5% C02 incubator. Cells were harvested from the lower chamber after 3 hours and cell counts performed using a hemocytometer.

[1] = tested on: T-cell subpopulations moving toward or away from SDF-1α; assay: Inhibitor pretreatment of T-cells in SDF-1α transwell transmigration assay; type: cell-based, human; conditions: cells pretreated with inhibitor; for effect on chemotaxis to SDF-1α: peak chemotaxis at 100 ng/ml SDF-1α; for effect on fugetaxis from SDF-1α: peak fugetaxis at 1 or 10 μg/ml SDF-1α
Procedure: (§2) Three chemotaxis assays were used in this study. First, quantitative chemotaxis transmigration assays were performed using a transwell system (Corning Inc., NY) (6.5 mm diameter, 5 μm pore size, polycarbonate membrane) as previously described^13. Purified T-cell and thymocyte subpopulations (5×10^4 cells) were added to the upper chamber of each well in a total volume of 150 μl of IMDM alone. […] Cells were pretreated with pertussis toxin (PTX) 100 ng/ml for 1 hour, genistein (1 μg/ml for 20 minutes), herbimycin (1 μM for 20 minutes) or wortmannin (1 μM for 20 minutes) (Sigma Chemical Company, St Louis, Mo.) in a tissue culture incubator at 37° C. and 5% CO2 prior to their addition to the upper chambers of the transwells in selected experiments.
(§3) Transwells prepared in this way were incubated for 3 hours at 37° C., 5% CO2 incubator. Cells were harvested from the lower chamber after 3 hours and cell counts, immunophenotype and CXCR-4 chemokine receptor expression determined.
as §1

C57/B6 mice = assay: T-cell infiltration into the site of a secondary immune response (Ova challenge, peritoneal lavage) after SDF-1; type: in vivo, mouse; conditions: 24 hours
Procedure: C57/B6 mice (Jackson Laboratories, ME) were obtained and primed subcutaneously with 100 μg chicken ovalbumin (Sigma) containing less than 0.01% LPS by the limulus assay and dissolved in 100 μl of Complete Freund's Adjuvant (CFA) (Sigma). Three days ova-primed mice were challenged by intraperitoneal (IP) injection with 100 μg of ovalbumin (Ova) dissolved in 250 μl of ddH20. […] These mice were then euthanized 24 hours following the second IP injection and peritoneal lavage with 5 mls of PBS performed with direct visualization of the peritoneal sac and its contents in order to avoid peripheral blood contamination. Peritoneal fluid cells harvested in this way contained <0.1% red blood cells. Three groups of control mice were used. In the first, C57/B6 mice were euthanized prior to Ova-priming and a peritoneal lavage performed. The second group of control mice were primed subcutaneously and challenged with Ova intraperitoneally as above and then euthanized 24 hours later. […]
Cells harvested from the peritoneal fluid were counted with a hemocytometer and their viability determined by Trypan blue exclusion and the total viable nucleated cell count per ml of peritoneal fluid was determined. […] The proportion of T-cells of each subpopulation (CD3^+, CD3^+CD4^+, CD3^+CD8^+) was determined as a percentage of the total nucleated cell fraction in the peritoneal fluid. […]

[2] = tested on: TN, DP and SP subpopulations of fetal thymocytes; assay: Transwell transmigration of fetal thymocytes to SDF-1α; type: cell-based, human
From the text: (§4) Human fetal thymi and peripheral blood samples were obtained from 16 to 22 week abortuses according to Institutional Review Board approved guidelines. Thymi were physically disaggregated and mononuclear cell suspensions generated. Thymocytes were stained with CD8 (FITC), CD3 (PE) and CD4 (APC) and sorted into purified subpopulations of triple negative immature thymocytes (TN) (CD3^−, CD4^−, CD8^−) and mature double positive (DP) (CD4^+CD8^+) and single positive (SP) thymocytes (CD3^+CD4^+ or CD3^+CD8^+) by cell sorting. Fetal blood mononuclear cells (FBMC) were prepared from fetal blood using Ficoll-Hypaque as above. FBMC were labeled with CD8 (FITC), CD3 (PE), CD4 (APC) and anti-CD45RA (FITC). Purified populations of CD4^+CD45RA^+ and CD8^+CD45RA^+ T-cells were sorted cultured overnight in serum free Iscoves modified medium prior to use in chemotaxis assays.
(§5) Three chemotaxis assays were used in this study. First, quantitative chemotaxis transmigration assays were performed using a transwell system (Corning Inc., NY) (6.5 mm diameter, 5 μm pore size, polycarbonate membrane) as previously described^13. […]
as §3

[3] = tested on: adult peripheral blood T-cell subpopulations; assay: Semi-quantitative transmigration assay with tissue culture insert as SDF-1α reservoir; type: cell-based, human
Procedure: The second semi-quantitative transmigration assay involved the use of a tissue culture insert (6.5 mm diameter, 0.45 μm pore size, polycarbonate membrane) (Millipore, Bedford Mass.). Adult peripheral blood T-cell subpopulations (1×10^5 cells) were plated into the wells of a 12-well tissue-culture dish in serum-free Iscove's medium. The tissue-culture plate was then incubated at 37° C. for 1 hour to allow the cells to settle evenly over the base of the well. […] The tissue culture insert was gently placed in the center of the well of the 12-well tissue-culture plate leaving a gap of 0.3 cm between the edge of the insert and the edge of the well of the tissue culture plate. The well with transwell insert was incubated for up to 18 hours at 37° C. on the heated stage of a microscope and viewed by time lapse videomicroscopy recording at 120 frames per hour or by Polaroid still photography. Maintenance of a gradient was assessed by loading of methylene blue into the insert and observing a preserved gradient of color over the incubation period.

[4] = tested on: adult peripheral blood T-cell subpopulations; assay: Transwell transmigration assay with SDF-1α, adult peripheral blood T-cells; type: cell-based, human; conditions: for T-cells transmigrating in response to a positive gradient of SDF-1α: SDF-1α 100 ng/ml
From the text: Peripheral blood was obtained from 12 healthy donors (age 25-40 years, median age 31). Peripheral blood mononuclear cells (PBMC) were obtained from peripheral blood using Ficoll-Hypaque. PBMC were stained with anti-CD4 (PE), anti-CD8 (PE), anti-CD45RA (FITC), anti-CD45RO (FITC) (Becton-Dickinson, San Jose, Calif.). The CD4^+CD45RA^+, CD4^+CD45RO^+ and CD8^+CD45RA^+ or CD8^+CD45RO^+ subpopulations of peripheral blood cells were sorted using a FACS vantage sorter (Becton-Dickinson, San Jose, Calif.). […] Sorted adult peripheral blood T-cell subpopulations were cultured overnight in serum-free Iscoves modified medium (GIBCO BRL, Gaithersburg, Md.), prior to their use in chemotaxis assays.
as §2, §3

[5] = tested on: CD4+CD45RA+ and CD8+CD45RA+ fetal blood T-cells; assay: Transwell transmigration of fetal blood T-cells to SDF-1α; type: cell-based, human
From the text: as §4, §5, §3

[6] = tested on: adult peripheral blood T-cell subpopulations; conditions: reported in the literature; cited from earlier work
[7] = tested on: peripheral T-cell subpopulations; assay: Semi-quantitative migration assay in methylcellulose, time lapse videomicroscopy; type: cell-based, human; conditions: SDF-1α loaded at fixed position, 10 μg/ml or 100 ng/ml
Procedure: In the third semi-quantitative migration assay, T-cell subpopulations (1×10^5 cells) were mixed with 0.5 ml of 0.5% methylcellulose (Stem Cell Technologies, Vancouver, BC) in sterile medium and plated in a 24 well plate.
[…]
To further validate the process of concentration dependent directional movement, a third transmigration assay was used. […] The movement of a gradient across the methylcellulose was documented in independent experiments by monitoring a dye front through the culture; a process not achieving equilibrium over the duration of our incubations.

[8] = tested on: human T-cell subpopulations; assay: Transmigration of human T-cells to KSHV-infected cell supernatants and chemokines; type: cell-based
From the text: We examined the chemotactic and fugetactic responses of human T-cell subpopulations and KSHV specific CTL clones to the KSHV proteins vMIP-I and vMIP-II and serum free supernatants from two cell-lines well known in the art that are chronically infected by KSHV and derived from human tumors, lines BCBL-1 and VG-1. BCBL-1 is a B cell line derived from a body cavity-based B lymphoma that is latently infected with HHV-8/KSHV; no EBV DNA is present in this line (Renne, R., W. et al., Nat. Med., 1996, 2:342-346).
FIG. 7: Transmigration of human T-cells to supernatants derived from cell lines which are chronically infected with KSHV (FIG. 7A: BCBL-1, and FIG. 7B:VG-1).
Fugetactic (black bars) and chemotactic (striped bars) migratory responses are shown.

Nc1ncnc2c1nc(Br)n2[C@@H]1O[C@@H]2COP(=O)(O)O[C@H]2[C@H]1O [8-Br-cAMP]
inhibition of fugetaxis induced by Fraction 18 (Jurkat T-cells): 95%
effect on movement away from HIV-1IIIB gp120 (CD8+CD45RA+ T-cells): differentially sensitive to inhibition
effect on chemotaxis to SDF-1α [1]: not chemotaxis
effect on fugetaxis from SDF-1α [1]: inhibited fugetaxis

Nc1nc2c(nc(Br)n2[C@@H]2O[C@@H]3COP(=O)(O)O[C@H]3[C@H]2O)c(=O)[nH]1 [8-Br-cGMP]
inhibition of fugetaxis induced by Fraction 18 (Jurkat T-cells): did not significantly inhibit fugetaxis

O=c1c(-c2ccc(O)cc2)coc2cc(O)cc(O)c12 [genistein]
effect on chemotaxis to SDF-1α [1]: inhibited chemotaxis
effect on fugetaxis from SDF-1α [1]: minimal effect on fugetaxis

CO[C@H]1[C@@H](OC)C[C@H](C)[C@@H](OC)C2=CC(=O)C=C(NC(=O)/C(C)=C/C=C\[C@H](OC)[C@@H](OC(N)=O)/C(C)=C/[C@@H]1C)C2=O [herbimycin]
effect on chemotaxis to SDF-1α [1]: inhibited chemotaxis
effect on fugetaxis from SDF-1α [1]: minimal effect on fugetaxis

SDF-1α
T cell accumulation at site of Ova challenge (C57/B6 mice; SDF-1 low dose (100 ng/ml) IP, vs sham or PBS): No significant differences
T cell infiltration at site of Ova challenge (C57/B6 mice; high dose SDF-1 (5 μg/ml) IP, p=0.02 vs controls): blunted significantly below that of controls
cell movement in response to SDF-1α ([2]; TN, DP, SP fetal thymocytes and fetal blood T-cells): minimal cell movement in response to SDF-1α except in the most immature TN subset
fugetaxis above background chemokinesis ([2]; thymocyte subpopulations, even at 1 μg/ml and 10 μg/ml): In no thymocyte subpopulation was fugetaxis noted above background chemokinesis levels
direction of T-cell migration relative to insert ([3]; insert contained 10 μg/ml SDF-1α): migrate towards the source of SDF-1α and a second population to migrate away
direction of T-cell migration relative to insert ([3]; insert contained SDF-1α at 100 ng/ml): Only movement toward the insert was seen
concentration of maximal fugetaxis ([4]; CD4+CD45RA+ cells): 10 µg/mL
T-cells transmigrating in response to a positive gradient of SDF-1α ([4]; CD4+CD45RA+ cells): 85%
T-cells transmigrating in response to a positive gradient of SDF-1α ([4]; CD4+CD45RO+ cells): 79%
T-cells transmigrating in response to a positive gradient of SDF-1α ([4]; CD8+CD45RA+ cells): 97%
T-cells transmigrating in response to a positive gradient of SDF-1α ([4]; CD8+CD45RO+ cells): 51%
concentration of maximal fugetaxis ([4]; CD8+CD45RO+, CD8+CD45RA+ and CD4+CD45RO+ cells): 1 µg/mL
concentration of peak chemoattractant activities ([4]; all four adult T-cell subpopulations): 100 ng/mL
decline of chemotaxis toward SDF-1α ([4]; concentration increased from 100 ng/ml to 10 μg/ml, all cells): ≤ 27 fold
concentration at which agent acts as potent fugetactic agent to immune cells ([4]; mature T cells): higher than 200 ng/ml
concentration of maximal chemotactic responses [5]: 100 ng/mL
concentration at which reported as lymphocyte chemoattractant [6]: lower than 100 ng/ml
direction of T-cell movement in methylcellulose [7]: away from high concentrations of SDF-1α and towards low concentrations

B1: MIP-1α: human chemokine (protein, UniProt P10147 24-92, looked up)
C-C motif chemokine 3: SLAADTPTACCFSYTSRQIPQNFIADYFETSSQCSKPGVIFLTKRSRQVCADPSEEWVQKYVSDLELSA
chemotactic response of T-cell subsets ([8]; 10 ng/ml): clear chemotactic response

B2: vMIP-II: KSHV-encoded human chemokine homologue (protein, UniProt Q98157 21-94, looked up)
Viral macrophage inflammatory …: GDTLGASWHRPDKCCLGYQKRPLPQVLLSSWYPTSQLCSKPGVIFLTKRGRQVCADKSKDWVKKLMQQLPVTAR
fugetactic response of T-cells ([8]; 100 ng/ml): not
